Series [1] has as its target T1, CypA (Homo sapiens, UniProt P62937).
T1 construct: GST (N, cleaved yes); made in house; host or cells: E. coli (pGEX-KG)
The experiment in a line: PPIase activity of CypA, coupled chymotrypsin analysis. Format: biochemical. As to the method:
Example 5: Analysis of Peptidyl-Prolyl Cis-Trans Isomerase Activity
The PPIase activity of CypA was determined according to a known method using the coupled chymotrypsin analysis.
The cis-trans isomerization was measured by absorbance at 390 nm in a spectrophotometer. Additionally, the remaining percentage of enzyme activity was measured at different concentrations of the inhibitor to calculate the 50% inhibition concentration (IC50) to the PPIase activity. Data was optimized via graphs by exporting using Graph Pad Prism 5.

Series [2] relates to HCV replicon cells. The experiment in a line: Luciferase activity in HCV replicon cells. The class given is cell-based. The note with it: Hepatitis C virus, 72 h, read-out: inhibition of luciferase activity of HCV. As to the method: Additionally, a series of compounds (WJCPA-1 to WJCPA-135) having the bis-amide structure as a parent structure in common, based on the inhibitory effect of WJCPA-126 against the PPIase activity, were synthesized and their activities were confirmed. Specifically, Huh7-rep cells were treated with each of the compounds at a concentration of 2 μM for 3 days, and the expression level of NS5A was confirmed by performing an immunoblot analysis according to a known method (FIG. 5). The 32 kinds of compounds confirmed to have excellent inhibitory effect especially against the NS5A expression from the immunoblot experiment were measured regarding their inhibitory effect against luciferase activity and the results are illustrated in FIG. 6. In the same manner as in western blot, the HCV replicon cells were treated with each of the compounds at a concentration of 2 μM and incubated for 72 hours, and the total cell lysate of the cultured cells were used for the analyses of western blot and the activity of luciferase.

Series [3] relates to calcineurin. The experiment in a line: Calcineurin phosphorylase analysis in splenocytes. The settings on record: FIG. 8b. The class given is cell-based, mouse. As to the method:
Example 6: Analysis of Calcineurin Phosphorylase
Dephosphorylation of RH phosphopeptide was measured using calcineurin cell activity assay kit (Enzo Life sciences, Plymouth Meeting, Pa., USA) to determine calcium-dependent activity of calcineurin. Splenocytes (2×10^6/well) were incubated along with or WJCPA-126 for 20 hours, and further untreated or stimulated with 1 μg/mL of ionomycin (Calibiochem, La Jolla, Calif., USA). Then, the cells were used for the measurement of calcineurin activity.

Series [4] has as its system NFAT1. Briefly: NFAT dephosphorylation by western blot and immunofluorescence. The class given is cell-based, mouse. As to the method: Upon stimulation, the cells were washed with sterile PBS, suspended in lysis buffer (Invitrogen, Carlsbad, Calif., USA), incubated on ice for 10 minutes, and centrifuged at 19,000 g for 15 minutes. The phosphorylation state of the NFAT protein in the supernatant was confirmed by western blot analysis using monoclonal anti-NFATc 1. For the confirmation of NFAT1 localization using a confocal microscope, the cells were washed and then fixed by treating with 3.7% formaldehyde at room temperature for 20 minutes. […] Upon incubation, the cells were washed twice with PBS and incubated in a dark room at room temperature with secondary antibody, which was conjugated with Alexa 546 (Invitrogen, Carlsbad, Calif., USA) diluted in PBS containing 3% BSA at a 1:200 ratio, for 2 hours. […] Finally, the cells were washed once with PBS and mounted onto glass slides using a coverslip and a mounting solution (Vector Mount, Calif., USA). The images were captured via Zeiss confocal laser scanning microscope (Zeiss, Germany).

A short description of series [5]: in vitro. Format: cell-based, hepatitis C virus. The settings on record: genotype 2a JFH1; FIG. 11b.
In series [6] the test system is genotype 2a (JFH1) replication cells. The experiment in a line: microbe, parasite or virus in culture. The class given is cell-based, hepatitis C virus. The note with it: Hepatitis C virus.
For series [7], the system named is STAT1, STAT2, IRF9, OAS1, and ISG15. The experiment in a line: Real-time qRT-PCR of interferon-stimulated genes in HCV replicon cell. Format: cell-based, human. The note with it: 2 μM; FIG. 14. The method, then:
(§1) Example 19: Real-Time Quantitative Reverse Transcriptase PCR Analysis
(§2) Real-time quantitative reverse transcriptase PCR (qRT-PCR) was performed using SYBR Green PCR Master Mix (Invitrogen/Applied Biosystem, Carlsbad, Calif., USA) and ABI Prism 7300 Real-time PCR System (Applied Biosystems, Carlsbad, Calif., USA) according to the manufacturer's instructions. Calculations were performed based on […] method using the following equation: R (ratio)=2-[ΔCT (sample)-ΔCT (control group)]. The data were expressed as fold change of the treated group relative to the control group and standardized relative to the glyceraldehyde 3-phosphate dehydrogenase (GAPDH) level.
(Real-time PCR tracks product formation cycle by cycle.)

For series [8], the system named is IFN-α. The experiment in a line: IFN-α mRNA and IFN-α ELISA in HCV replicon cell. Format: cell-based, human. The method, then: Example 11: Determination of IL-8 and INF-α Concentrations in Cell Culture Media by ELISA
Upon incubation, the cell culture media were collected and the IL-8 and IFN-α concentrations were analyzed according to the protocol of eBioscience (San Diego, Calif., USA) by ELISA.
as §1, §2

For series [9], the system named is HCV replicon cell. Briefly: Combined treatment: HCV replicon RNA level by qRT-PCR, synergy analysis. Format: cell-based, hepatitis C virus. The settings on record: in combination with telaprevir, IFN-α, or ribavirin vs. each alone; FIG. 16. As to the method:
as §1, §2
Example 20: Synergy Analysis
In order to confirm whether the combination between NIM811 and IFN-α, ribavirin, or telaprevir is synergistic, additive, or antagonistic, the combination index (CI) was calculated using the CalcuSyn Software (Biosoft). In fact, the combination is additive when CI=1.0, synergistic when CI<1.0, and antagonistic when CI>1.0.
(Replicon systems follow genome replication, usually without infectious particles.)

For series [10], the system named is HCV replicon cell. Briefly: Combined treatment: MTT analysis in HCV replicon cell. The class given is cell-based, human. As to the method:
Example 9: Analysis of Cytotoxicity
Cytotoxicity was analyzed in a 96-well plate using 5 mg/mL of MTT (3-(4,5-dimethylthiasol-2-yl)-2,5-diphenyltetrazolium bromide). The optical density of cells was measured at 550 nm using a microplate reader (Bio-Rad, Richmond, Calif., USA). Cell viability rate was expressed in percentage of the absorbance of treated cells relative to the absorbance of untreated cells.

Series [11] is described as follows: Toxicity in BALB/c mice.
Method: The experimental animals were divided into three groups (n=5) and one of the groups was used as the untreated control group. […] Fourteen days after the administration, blood samples were collected from the treat groups and the control group, respectively. The weight of experimental mice was measured for the evaluation of systemic toxicity in mice. For the confirmation of hepatotoxicity, the AST and ALT activities were measured according to the manufacturer's protocols applied to a 96-well microplate using the GOT-GPT kit (Asan Pharm, Korea). The analysis results regarding the AST and ALT activities were shown in IU/L units. For the confirmation of nephrotoxicity, the blood urea nitrogen (BUN) was measured using the Blood Urea Nitrogen Enzymatic Assay kit (Bioo Scientific, Austin, Tex., USA), and the creatine level in the serum was measured using the Mouse Creatine Assay kit (Crystal Chem, Inc., Downers Grove, Ill., USA).

This note sets out measurements from US10064843B2, “Bis-amide derivative and use thereof” (University-Industry Cooperation Group of Kyung Hee …, priority 2013, dated 2018).

As a reminder, the IC50 is the concentration at which inhibition is half-maximal. Broadly, the inhibition is the percentage by which the read-out fell short of the control. One may read the CC50 as the concentration at which the toxic effect on the cells reaches its halfway point. A word on the EC50: it is the concentration needed to bring the measured effect to its halfway point. Low readings indicate greater potency, high ones weaker potency.

Each structure is given as a SMILES string. Where two headings read alike, the source gives them in different places.

T1 sequence (P62937 whole entry): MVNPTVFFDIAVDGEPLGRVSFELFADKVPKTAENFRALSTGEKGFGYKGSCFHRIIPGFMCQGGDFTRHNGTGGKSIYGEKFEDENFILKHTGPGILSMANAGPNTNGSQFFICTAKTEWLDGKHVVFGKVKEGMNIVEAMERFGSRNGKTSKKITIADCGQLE

In the case of `COc1cc(C(C(=O)NC2CCCCC2)N(C(=O)Cc2c[nH]c3ccccc23)c2ccc(C(C)C)cc2)cc(OC)c1OC` (centres unmarked) [WJCPA-126, N-cyclohexyl-2-[(2-1H-indol-3-yl-acetyl)-(4-isopropyl-phenyl)-amino]-2-(3,4,5-trimethoxy-phenyl)-acetamide], in series [1] (1 μM, 20 nM CypA, FIG. 3a), the “inhibitory effect against the PPIase activity of CypA” value was “strong inhibitory effect”. Also, the IC50 in [1] (FIG. 3b, read-out: IC50 PPIase activity) came to 3.5 nM; in series [1] (FIG. 7a, read-out: IC50 PPIase activity of CypA), 3.6 nM. For the same molecule, the inhibition at 2 µM in series [2] was not above 80%. Moreover, the “effect on ionomycin-stimulated calcineurin phosphorylase activity” value in [3] is reported as “no inhibitory effect”. Further, the “NFAT1 migration into the nucleus” value in series [4] (ionomycin stimulation, FIG. 9b) is listed as “significant localization of NFAT1 within the nucleus”. Also, the “phosphorylation state of NFAT1” value in series [4] (ionomycin-stimulated, FIG. 9a) is reported as “maintained the dephosphorylated state of NFAT1”. The molecule further returned a CC50 in [5] of 22.3 ± 4.23 µM. The same molecule returned a 50% effective concentration (EC50) in [6] of 1100 ± 50 nM. For the same molecule, the “mRNA expression levels of STAT1, STAT2, IRF9, OAS1, and ISG15” value in [7] is “increase the mRNA expression levels of STAT1, STAT2, IRF9, OAS1, and ISG15 in a time-dependent manner”. The “mRNA level of IFN-α” value in series [8] (48 hours after the treatment, FIG. 15d) is listed as “cannot control the mRNA level of IFN-α”. In series [8] (FIG. 15e), the “IFN-α production (ELISA)” value is reported as “significantly increase the IFN-α production”. Besides, the “levels of HCV-specific RNA and IL-8 in combined treatment” value in series [9] is recorded as “synergistic decrease”. Moreover, the “cytotoxicity in combined treatment” value in series [10] (in combination with IFN-α, RBV, or telaprevir, FIG. 16a) is “did not show any noticeable cytotoxicity”. Further, the “cell viability in combined treatment” value in series [10] (in combination with interferon-α, ribavirin, or telaprevir) was not below 80%. In addition, in series [11] (50 mg/kg for 2 weeks, FIG. 17b, 17c), the “serum ALT and AST” value was “No difference was observed”. Moreover, in series [11] (50 mg/kg intraperitoneally daily, 14 days, FIG. 17), the “safety parameters (body weight, serum ALT, AST, BUN, creatinine)” value was “did not induce any noticeable change on safety parameters”.
